Assay results taken from ChEMBL document CHEMBL3046389, “Synthesis and biological evaluation of novel hydroquinone dimethyl ethers as potential anticancer and antimicrobial agents” (2013).
≈ marks a conversion by molar mass, not a printed value.

Experiments:
Assay type in all cases: functional
NCI-H23 = experiment: Anticancer activity against Homo sapiens (human) NCI-H23 cells after 48 hr by SRB assay; settings: NCI-H23, 48 h
SF-295 = experiment: Growth inhibition of Homo sapiens (human) SF295 cells at 10 uM after 48 hr by SRB assay; settings: SF-295, 48 h, read-out: GI
OVCAR-3 = experiment: Growth inhibition of Homo sapiens (human) OVCAR3 cells at 10 uM after 48 hr by SRB assay; settings: OVCAR-3, 48 h, read-out: GI
NCI-H522 = experiment: Anticancer activity against Homo sapiens (human) NCI-H522 cells after 48 hr by SRB assay; settings: NCI-H522, 48 h
Hs-578T = experiment: Anticancer activity against Homo sapiens (human) Hs 578T cells after 48 hr by SRB assay
MDA-MB-468 [1] = experiment: Anticancer activity against Homo sapiens (human) MDA-MB-468 cells after 48 hr by SRB assay; settings: MDA-MB-468, 48 h
HL-60(TB) = experiment: Anticancer activity against Homo sapiens (human) HL-60(TB) cells after 48 hr by SRB assay; settings: HL-60, 48 h
MDA-MB-435 [2] = experiment: Growth inhibition of Homo sapiens (human) MDA-MB-435 cells at 10 uM after 48 hr by SRB assay; settings: MDA-MB-435, 48 h, read-out: GI
Escherichia coli = experiment: Antimicrobial activity against Escherichia coli ATCC 11775 after 48 hr by two-fold serial broth dilution method; settings: ATCC 11775, 48 h
SNB-19 = experiment: Anticancer activity against Homo sapiens (human) SNB19 cells after 48 hr by SRB assay; settings: SNB-19, 48 h
PC-3 [3] = experiment: Growth inhibition of Homo sapiens (human) PC3 cells at 10 uM after 48 hr by SRB assay; settings: PC-3, 48 h, read-out: GI
HT-29 = experiment: Anticancer activity against Homo sapiens (human) HT-29 cells after 48 hr by SRB assay; settings: HT-29, 48 h
MDA-MB-468 [4] = experiment: Growth inhibition of Homo sapiens (human) MDA-MB-468 cells at 10 uM after 48 hr by SRB assay; settings: MDA-MB-468, 48 h, read-out: GI
SK-MEL-5 = experiment: Anticancer activity against Homo sapiens (human) SK-MEL-5 cells after 48 hr by SRB assay; settings: SK-MEL-5, 48 h
ACHN = experiment: Growth inhibition of Homo sapiens (human) ACHN cells at 10 uM after 48 hr by SRB assay; settings: read-out: GI
A549 = experiment: Anticancer activity against Homo sapiens (human) A549/ATCC cells after 48 hr by SRB assay; settings: A549, 48 h
SN12C = experiment: Anticancer activity against Homo sapiens (human) SN12C cells after 48 hr by SRB assay
786-0 = experiment: Anticancer activity against Homo sapiens (human) 786-0 cells after 48 hr by SRB assay; settings: 786-0, 48 h
MCF7 [5] = experiment: Growth inhibition of Homo sapiens (human) MCF7 cells at 10 uM after 48 hr by SRB assay; settings: MCF7, 48 h, read-out: GI
LOX IMVI = experiment: Growth inhibition of Homo sapiens (human) LOXIMVI cells at 10 uM after 48 hr by SRB assay; settings: read-out: GI
UACC-62 = experiment: Growth inhibition of Homo sapiens (human) UACC62 cells at 10 uM after 48 hr by SRB assay; settings: UACC-62, 48 h, read-out: GI
OVCAR-4 = experiment: Anticancer activity against Homo sapiens (human) OVCAR4 cells after 48 hr by SRB assay; settings: OVCAR-4, 48 h
UO-31 = experiment: Anticancer activity against Homo sapiens (human) UO31 cells after 48 hr by SRB assay; settings: UO-31, 48 h
PC-3 [6] = experiment: Anticancer activity against Homo sapiens (human) PC3 cells after 48 hr by SRB assay; settings: PC-3, 48 h
M14 = experiment: Growth inhibition of Homo sapiens (human) M14 cells at 10 uM after 48 hr by SRB assay; settings: M14, 48 h, read-out: GI
HCC 2998 = experiment: Anticancer activity against Homo sapiens (human) HCC2998 cells after 48 hr by SRB assay; settings: HCC 2998, 48 h
IGROV-1 = experiment: Growth inhibition of Homo sapiens (human) IGROV1 cells at 10 uM after 48 hr by SRB assay; settings: IGROV-1, 48 h, read-out: GI
NCI-H460 = experiment: Anticancer activity against Homo sapiens (human) NCI-H460 cells after 48 hr by SRB assay; settings: NCI-H460, 48 h
MCF7 [7] = experiment: Anticancer activity against Homo sapiens (human) MCF7 cells after 48 hr by SRB assay; settings: MCF7, 48 h
K562 = experiment: Growth inhibition of Homo sapiens (human) K562 cells at 10 uM after 48 hr by SRB assay; settings: K562, 48 h, read-out: GI
HCT-116 = experiment: Growth inhibition of Homo sapiens (human) HCT116 cells at 10 uM after 48 hr by SRB assay; settings: HCT-116, 48 h, read-out: GI
TK-10 = experiment: Growth inhibition of Homo sapiens (human) TK10 cells at 10 uM after 48 hr by SRB assay; settings: TK-10, 48 h, read-out: GI
MDA-MB-435 [8] = experiment: Anticancer activity against Homo sapiens (human) MDA-MB-435 cells after 48 hr by SRB assay; settings: MDA-MB-435, 48 h
[9] = read-out: LC50 (the source's name)

COc1ccc(OC)c(/C=C/C(=O)N/N=C/c2ccc(Cl)cc2)c1
GI50 (NCI-H23): 0.148 µM
TGI (NCI-H23): 2.46 µM
CC50 (NCI-H23; [9]): > 100 µM
inhibition of growth at 10 µM (SF-295): 68.2%
inhibition of growth at 10 µM (OVCAR-3): 143%
GI50 (NCI-H522): 0.0292 µM
TGI (NCI-H522): 0.382 µM
CC50 (NCI-H522; [9]): > 100 µM
GI50 (Hs-578T): 0.284 µM
TGI (Hs-578T): > 100 µM
CC50 (Hs-578T; [9]): > 100 µM
GI50 (MDA-MB-468 [1]): 0.142 µM
TGI (MDA-MB-468 [1]): 0.445 µM
CC50 (MDA-MB-468 [1]; [9]): > 100 µM
GI50 (HL-60(TB)): 0.0785 µM
TGI (HL-60(TB)): 0.483 µM
CC50 (HL-60(TB); [9]): > 100 µM
inhibition of growth at 10 µM (MDA-MB-435 [2]): 132%
MBC (Escherichia coli): 100 mg/L (≈ 290 µM)
MIC (Escherichia coli): 50 mg/L (≈ 145 µM)
GI50 (SNB-19): 0.34 µM
TGI (SNB-19): > 100 µM
CC50 (SNB-19; [9]): > 100 µM
inhibition of growth at 10 µM (PC-3 [3]): 73.8%
GI50 (HT-29): 0.0435 µM
TGI (HT-29): 1.52 µM
CC50 (HT-29; [9]): > 100 µM
inhibition of growth at 10 µM (MDA-MB-468 [4]): 104%
GI50 (SK-MEL-5): 0.0581 µM
LC50 (SK-MEL-5): > 100 µM
inhibition of growth at 10 µM (ACHN): 51.6%
GI50 (A549): 0.242 µM
TGI (A549): > 100 µM
CC50 (A549; [9]): > 100 µM
GI50 (SN12C): 0.982 µM
LC50 (SN12C): > 100 µM
TGI (SN12C): > 100 µM
GI50 (786-0): 0.326 µM
TGI (786-0): > 100 µM
CC50 (786-0; [9]): > 100 µM
inhibition of growth at 10 µM (MCF7 [5]): 91.1%
inhibition of growth at 10 µM (LOX IMVI): 63.3%
inhibition of growth at 10 µM (UACC-62): 57.9%
GI50 (OVCAR-4): 0.439 µM
TGI (OVCAR-4): > 100 µM
CC50 (OVCAR-4; [9]): > 100 µM
GI50 (UO-31): 3.37 µM
LC50 (50% lethal concentration) (UO-31): > 100 µM
TGI (UO-31): > 100 µM
GI50 (PC-3 [6]): 0.169 µM
TGI (PC-3 [6]): > 100 µM
CC50 (PC-3 [6]; [9]): > 100 µM
inhibition of growth at 10 µM (M14): 134%
GI50 (HCC 2998): 0.139 µM
TGI (HCC 2998): 1.19 µM
CC50 (HCC 2998; [9]): 6.52 µM
inhibition of growth at 10 µM (IGROV-1): 82.1%
GI50 (NCI-H460): 0.119 µM
TGI (NCI-H460): 13.8 µM
CC50 (NCI-H460; [9]): > 100 µM
GI50 (MCF7 [7]): 0.0743 µM
TGI (MCF7 [7]): 32.5 µM
CC50 (MCF7 [7]; [9]): > 100 µM
inhibition of growth at 10 µM (K562): 86%
inhibition of growth at 10 µM (HCT-116): 94.3%
inhibition of growth at 10 µM (TK-10): 49%
GI50 (MDA-MB-435 [8]): 0.0311 µM
TGI (MDA-MB-435 [8]): 0.0988 µM
CC50 (MDA-MB-435 [8]; [9]): > 100 µM
